The text below walks through data of patent publication US9889126B2, “Use of naratriptan in the treatment of rosacea” (GALDERMA RESEARCH & DEVELOPMENT, priority 2013, dated 2018).

Molecules are shown by their SMILES. Some results are limits rather than exact numbers.

Data set [1] deals with human subcutaneous artery. The experiment in a line: Vascular tonicity of human subcutaneous arteries ex vivo, myography. In kind it is cell-based. The following applies: for EC50: sc, dose-response. As for the experimental part:
(§1) Human subcutaneous veins are isolated from healthy human skin derived from plastic surgery operative waste (abdominal plasty). On receipt the skin sample is held at 4° C. in a receptacle containing physiological saline solution (PSS) 1× at pH=7.4. Dissection, isolation and mounting of the veins are conducted in cold PSS pH=7.4 using straight forceps and a stereomicroscope. Once the vein is isolated and cleaned of surrounding fat and conjunctive tissue, a segment 2 mm in length and diameter of between 100 and 600 μm is mounted in the myograph chamber between two 40 μm tungsten wires attached to removable jaws connected to the tension sensor and held in physiological saline solution (PSS) at pH=7.4 and 37° C. To perform the myography study the vein is placed at working pre-tension (g) corresponding to physiological pressure of 18 mmHg. Pre-tensioning is obtained by mechanical action to draw apart the tungsten wires (40 μm). The viability of the vessel is verified by depolarising the membrane of the vessel smooth muscle cells by increasing the concentration of potassium in the chamber. To do so the PSS solution contained in each chamber is replaced by a solution containing 80 mM KCl at pH=7.4 and pre-heated to 37° C. This step must be repeated twice with 1×PSS washing to cause relaxation between each contraction. At this stage if there is no change in measured tension the isolated vessel is considered non-viable. Naratriptan was evaluated by dose-response (n=1) to determine its maximum contraction intensity (Emax) and strength (EC50). The vessel was treated with increasing successive doses of product added every 3 minutes to the myograph chamber. Tension data (g) are successively converted to: • Tension (mN) 1 g=9.81 mN • Tension applied to the vessel wall (mN/mm): by dividing the tension value in mN by twice the length of the vessel i.e. 4 mm.
(§2) Data are then expressed for the vasoconstrictor product in percentage contraction (%) taking as 100% the value obtained for treatment with 80 mM KCl at step 1 to verify vessel viability.
(§3) The method used for this study is identical to the method used in Example 1. To perform myographic studies the vein is placed at a pre-tension (g) corresponding to physiological pressure of 18 mmHg while the artery is placed at a pre-tension of 90 mmHg since an artery wall is thicker than a vein wall.
(§4) The myograph apparatus has four independent chambers. Therefore four vessel segments were mounted in parallel in each study. Each compound was subjected to dose-response evaluation for each type of vessel (n=1). The vessel was therefore treated with successive, increasing concentrations of product added every 3 minutes to the myograph chamber. The tested compounds were naratriptan, sumatriptan, almotriptan and Rizatriptan.

The nature of data set [2]: Release and penetration into dermatomized human skin (Franz cells). The format is in vitro ADME. The following applies: 2% in PBS; for Mass balance: mean.
For another data set, the system named is human subcutaneous veins. Description: Vascular tonicity of human subcutaneous veins ex vivo, myography. The format is cell-based. The following applies: for EC50 / Emax (% max. contraction vs. 80 mM KCL): human subcutaneous vein, n=1; for EC50: dose-response. The method, then:
as §1, §2, §3, §4

In data set [3] the test system is neurogenic inflammation induced in mouse ear. The experiment in a line: Neurogenic inflammation assay, mouse ear, reziniferatoxin (RTX). In kind it is in vivo. The method, then:
The compound was then tested in a water/ethanol carrier to increase solubility.

For the compound `CNS(=O)(=O)CCc1ccc2[nH]cc(C3CCN(C)CC3)c2c1` [Naratriptan, N-methyl-2-[3-(1-methylpiperidin-4-yl)-1H-indol-5-yl]ethanesulfonamide], in data set [1] (n=1), the “Emax (% max. contraction vs. 80 mM KCl)” value was determined as 82% and it took 20 nM to reach a half-maximal effect (EC50). In data set [2], this compound displayed a Total skin of 3.46 % applied dose and a Mass balance of 91.22 % applied dose. The Total skin in data set [2] (listed as Naratriptan hydrochloride) is reported as 3.61 % applied dose. In addition, the “Persistent effect on the human vein after successive washings, time after removal of the compound” value in the data set with human subcutaneous veins (Example 1, after removal of compound from the chamber) was not above 90 min. Moreover, in the data set on human subcutaneous veins, the response was half-maximal at 13 nM (EC50) and the “Emax (% max. contraction vs. 80 mM KCL)” value is on record as 105%. In data set [3] (1% in acetone carrier, up to 45 minutes after treatment, single RTX application), the “Inhibition of neurogenic inflammation” value is “significantly inhibited”. Also, the “Inhibition of neurogenic inflammation” value in data set [3] (1% topical in water/ethanol carrier, treatment time 15 minutes) is listed as “significant inhibition”.
For `CNS(=O)(=O)Cc1ccc2[nH]cc(CCN(C)C)c2c1` [Sumatriptan, sumatriptan], the “Emax (% max. contraction vs. 80 mM KCl)” value in data set [1] (n=1) was determined as 61%; in data set [1] (n=1, listed as sumatriptan) it was 70%. In addition, the results for the EC50 (in data set [1] (n=1); in the data set on human subcutaneous veins) were 138 nM and 65 nM, respectively. Further, the “Emax (% max. contraction vs. 80 mM KCL)” value in the data set on human subcutaneous veins was 101%.
In data set [2], `CN(C)CCc1c[nH]c2ccc(CS(=O)(=O)N3CCCC3)cc12` [Almotriptan, almotriptan] displayed a Total skin of 1.86 % applied dose and a Mass balance of 94.16 % applied dose. Further, in the data set on human subcutaneous veins, the EC50 worked out at 62 nM and the “Emax (% max. contraction vs. 80 mM KCL)” value was 97%.
On to `CN(C)CCc1c[nH]c2ccc(Cn3cncn3)cc12` [Rizatriptan, rizatriptan], for which, in data set [1] (n=1), the “Emax (% max. contraction vs. 80 mM KCl)” value came to 54% and the EC50 amounted to 217 nM. Also, in the data set on human subcutaneous veins, the EC50 was 93 nM and the “Emax (% max. contraction vs. 80 mM KCL)” value was 94%.

As usually defined, the EC50 is the midpoint of the concentration-response curve. A lower EC50 goes with a more potent agent.
